Experimental data: the supplement of paper PMC10307832

Columns and labels:
Assay in all cases: relative viability (nuclei count vs DMSO), 5 days (fraction); higher = more cells survive
MLN4924 + Navitoclax = compound: NS(=O)(=O)OC[C@@H]1C[C@@H](n2ccc3c(N[C@H]4CCc5ccccc54)ncnc32)C[C@@H]1O [MLN4924] + CC1(C)CCC(c2ccc(Cl)cc2)=C(CN2CCN(c3ccc(C(=O)NS(=O)(=O)c4ccc(N[C@H](CCN5CCOCC5)CSc5ccccc5)c(S(=O)(=O)C(F)(F)F)c4)cc3)CC2)C1 [Navitoclax] (partner 0.5 µM)
Summary of the method: (§1)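 Dosing by pin tool came one day after lung cancer cell lines were seeded in 1536-well plates, using either one drug or a fixed anchor-drug dose plus five library-drug doses (not always all listed) in √10 steps. After 5 days, nuclei were counted on 4× images. Relative viability is treated-well nuclei count divided by vehicle-well nuclei count, and values are medians of duplicate plates.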

MLN4924 + AZD7762 = compound: NS(=O)(=O)OC[C@@H]1C[C@@H](n2ccc3c(N[C@H]4CCc5ccccc54)ncnc32)C[C@@H]1O [MLN4924] + NC(=O)Nc1cc(-c2cccc(F)c2)sc1C(=O)N[C@H]1CCCNC1 [AZD7762] (partner 0.2 µM)
Summary of the method: as §1

GSK126 + Tozasertib = compound: CC[C@H](C)N1C=C(C2=C(C=C(C=C21)C3=CN=C(C=C3)N4CCNCC4)C(=O)NCC5=C(C=C(NC5=O)C)C)C [GSK126] + Cc1cc(Nc2cc(N3CCN(C)CC3)nc(Sc3ccc(NC(=O)C4CC4)cc3)n2)n[nH]1 [Tozasertib] (partner 0.1 µM)
Summary of the method: as §1

[1] = compound: C1CC(C1)(C(=O)O)C(=O)O.[NH2-].[NH2-].[Pt+2] [Carboplatin] + CC(=O)c1c(C)c2cnc(Nc3ccc(N4CCNCC4)cn3)nc2n(C2CCCC2)c1=O [Palbociclib] (partner 0.5 µM)
Summary of the method: as §1

NCI-H2347
relative viability (MLN4924 + Navitoclax; first compound 0.04 µM): 0.676 | relative viability (MLN4924 + Navitoclax; first compound 0.1265 µM): 0.677 | relative viability (MLN4924 + Navitoclax; first compound 0.4 µM): 0.44 | relative viability (MLN4924 + Navitoclax; first compound 1.265 µM): 0.305 | relative viability (MLN4924 + Navitoclax; first compound 4 µM): 0.369 | relative viability (MLN4924 + AZD7762; first compound 0.04 µM): 0.904 | relative viability (MLN4924 + AZD7762; first compound 0.1265 µM): 0.834 | relative viability (MLN4924 + AZD7762; first compound 0.4 µM): 0.536 | relative viability (MLN4924 + AZD7762; first compound 1.265 µM): 0.252 | relative viability (MLN4924 + AZD7762; first compound 4 µM): 0.242 | relative viability (GSK126 + Tozasertib; first compound 0.08 µM): 0.664 | relative viability (GSK126 + Tozasertib; first compound 0.253 µM): 0.603 | relative viability (GSK126 + Tozasertib; first compound 0.8 µM): 0.635 | relative viability (GSK126 + Tozasertib; first compound 2.53 µM): 0.597 | relative viability (GSK126 + Tozasertib; first compound 8 µM): 0.444 | relative viability ([1]; first compound 0.08 µM): 0.456 | relative viability ([1]; first compound 0.253 µM): 0.418 | relative viability ([1]; first compound 0.8 µM): 0.423 | relative viability ([1]; first compound 2.53 µM): 0.482 | relative viability ([1]; first compound 8 µM): 0.42

NCI-H2405
relative viability (MLN4924 + Navitoclax; first compound 0.04 µM): 0.874 | relative viability (MLN4924 + Navitoclax; first compound 0.1265 µM): 0.702 | relative viability (MLN4924 + Navitoclax; first compound 0.4 µM): 0.273 | relative viability (MLN4924 + Navitoclax; first compound 1.265 µM): 0.13 | relative viability (MLN4924 + Navitoclax; first compound 4 µM): 0.171 | relative viability (MLN4924 + AZD7762; first compound 0.04 µM): 1.05 | relative viability (MLN4924 + AZD7762; first compound 0.1265 µM): 0.964 | relative viability (MLN4924 + AZD7762; first compound 0.4 µM): 0.557 | relative viability (MLN4924 + AZD7762; first compound 1.265 µM): 0.225 | relative viability (MLN4924 + AZD7762; first compound 4 µM): 0.245 | relative viability (GSK126 + Tozasertib; first compound 0.08 µM): 0.767 | relative viability (GSK126 + Tozasertib; first compound 0.253 µM): 0.71 | relative viability (GSK126 + Tozasertib; first compound 0.8 µM): 0.752 | relative viability (GSK126 + Tozasertib; first compound 2.53 µM): 0.697 | relative viability (GSK126 + Tozasertib; first compound 8 µM): 0.608 | relative viability ([1]; first compound 0.08 µM): 0.552 | relative viability ([1]; first compound 0.253 µM): 0.542 | relative viability ([1]; first compound 0.8 µM): 0.542 | relative viability ([1]; first compound 2.53 µM): 0.543 | relative viability ([1]; first compound 8 µM): 0.449

NCI-H3122
relative viability (MLN4924 + Navitoclax; first compound 0.04 µM): 0.929 | relative viability (MLN4924 + Navitoclax; first compound 0.1265 µM): 0.448 | relative viability (MLN4924 + Navitoclax; first compound 0.4 µM): 0.262 | relative viability (MLN4924 + Navitoclax; first compound 1.265 µM): 0.171 | relative viability (MLN4924 + Navitoclax; first compound 4 µM): 0.164 | relative viability (MLN4924 + AZD7762; first compound 0.04 µM): 0.916 | relative viability (MLN4924 + AZD7762; first compound 0.1265 µM): 0.485 | relative viability (MLN4924 + AZD7762; first compound 0.4 µM): 0.229 | relative viability (MLN4924 + AZD7762; first compound 1.265 µM): 0.132 | relative viability (MLN4924 + AZD7762; first compound 4 µM): 0.105 | relative viability (GSK126 + Tozasertib; first compound 0.08 µM): 0.423 | relative viability (GSK126 + Tozasertib; first compound 0.253 µM): 0.393 | relative viability (GSK126 + Tozasertib; first compound 0.8 µM): 0.367 | relative viability (GSK126 + Tozasertib; first compound 2.53 µM): 0.33 | relative viability (GSK126 + Tozasertib; first compound 8 µM): 0.344 | relative viability ([1]; first compound 0.08 µM): 0.17 | relative viability ([1]; first compound 0.253 µM): 0.211 | relative viability ([1]; first compound 0.8 µM): 0.17 | relative viability ([1]; first compound 2.53 µM): 0.183 | relative viability ([1]; first compound 8 µM): 0.189

PC-3 [JPC-3]
relative viability (MLN4924 + Navitoclax; first compound 0.04 µM): 0.785 | relative viability (MLN4924 + Navitoclax; first compound 0.1265 µM): 0.788 | relative viability (MLN4924 + Navitoclax; first compound 0.4 µM): 0.66 | relative viability (MLN4924 + Navitoclax; first compound 1.265 µM): 0.321 | relative viability (MLN4924 + Navitoclax; first compound 4 µM): 0.419 | relative viability (MLN4924 + AZD7762; first compound 0.04 µM): 0.854 | relative viability (MLN4924 + AZD7762; first compound 0.1265 µM): 0.964 | relative viability (MLN4924 + AZD7762; first compound 0.4 µM): 0.736 | relative viability (MLN4924 + AZD7762; first compound 1.265 µM): 0.328 | relative viability (MLN4924 + AZD7762; first compound 4 µM): 0.334 | relative viability (GSK126 + Tozasertib; first compound 0.08 µM): 0.879 | relative viability (GSK126 + Tozasertib; first compound 0.253 µM): 0.919 | relative viability (GSK126 + Tozasertib; first compound 0.8 µM): 0.883 | relative viability (GSK126 + Tozasertib; first compound 2.53 µM): 0.866 | relative viability (GSK126 + Tozasertib; first compound 8 µM): 0.805 | relative viability ([1]; first compound 0.08 µM): 0.537 | relative viability ([1]; first compound 0.253 µM): 0.577 | relative viability ([1]; first compound 0.8 µM): 0.511 | relative viability ([1]; first compound 2.53 µM): 0.526 | relative viability ([1]; first compound 8 µM): 0.512

PC-14
relative viability (MLN4924 + Navitoclax; first compound 0.04 µM): 0.997 | relative viability (MLN4924 + Navitoclax; first compound 0.1265 µM): 0.788 | relative viability (MLN4924 + Navitoclax; first compound 0.4 µM): 0.593 | relative viability (MLN4924 + Navitoclax; first compound 1.265 µM): 0.13 | relative viability (MLN4924 + Navitoclax; first compound 4 µM): 0.0891 | relative viability (MLN4924 + AZD7762; first compound 0.04 µM): 0.335 | relative viability (MLN4924 + AZD7762; first compound 0.1265 µM): 0.405 | relative viability (MLN4924 + AZD7762; first compound 0.4 µM): 0.347 | relative viability (MLN4924 + AZD7762; first compound 1.265 µM): 0.166 | relative viability (MLN4924 + AZD7762; first compound 4 µM): 0.127 | relative viability (GSK126 + Tozasertib; first compound 0.08 µM): 0.614 | relative viability (GSK126 + Tozasertib; first compound 0.253 µM): 0.674 | relative viability (GSK126 + Tozasertib; first compound 0.8 µM): 0.639 | relative viability (GSK126 + Tozasertib; first compound 2.53 µM): 0.535 | relative viability (GSK126 + Tozasertib; first compound 8 µM): 0.403 | relative viability ([1]; first compound 0.08 µM): 0.552 | relative viability ([1]; first compound 0.253 µM): 0.509 | relative viability ([1]; first compound 0.8 µM): 0.411 | relative viability ([1]; first compound 2.53 µM): 0.239 | relative viability ([1]; first compound 8 µM): 0.117

RERF-LC-KJ
relative viability (MLN4924 + Navitoclax; first compound 0.04 µM): 0.855 | relative viability (MLN4924 + Navitoclax; first compound 0.1265 µM): 0.569 | relative viability (MLN4924 + Navitoclax; first compound 0.4 µM): 0.229 | relative viability (MLN4924 + Navitoclax; first compound 1.265 µM): 0.177 | relative viability (MLN4924 + Navitoclax; first compound 4 µM): 0.209 | relative viability (MLN4924 + AZD7762; first compound 0.04 µM): 0.941 | relative viability (MLN4924 + AZD7762; first compound 0.1265 µM): 0.738 | relative viability (MLN4924 + AZD7762; first compound 0.4 µM): 0.256 | relative viability (MLN4924 + AZD7762; first compound 1.265 µM): 0.182 | relative viability (MLN4924 + AZD7762; first compound 4 µM): 0.253 | relative viability (GSK126 + Tozasertib; first compound 0.08 µM): 0.562 | relative viability (GSK126 + Tozasertib; first compound 0.253 µM): 0.449 | relative viability (GSK126 + Tozasertib; first compound 0.8 µM): 0.489 | relative viability (GSK126 + Tozasertib; first compound 2.53 µM): 0.485 | relative viability (GSK126 + Tozasertib; first compound 8 µM): 0.357 | relative viability ([1]; first compound 0.08 µM): 1.22 | relative viability ([1]; first compound 0.253 µM): 1.09 | relative viability ([1]; first compound 0.8 µM): 0.894 | relative viability ([1]; first compound 2.53 µM): 0.815 | relative viability ([1]; first compound 8 µM): 0.651
